Experimental data published in publication PMC4332668, “Characterization of a Novel PQQ-Dependent Quinohemoprotein Pyranose Dehydrogenase from Coprinopsis cinerea Classified into Auxiliary Activities Family 12 in Carbohydrate-Active Enzymes” (PLoS ONE, 2015).

Biological target: T1, DHPDH (Coprinopsis cinerea, UniProt A8P0V4)
T1 construct: gene PDH; isolated PQQ (AA12) dehydrogenase domain, residues 240-649, recombinant from Pichia pastoris, purified as apo-form
T1 sequence (A8P0V4 240-649): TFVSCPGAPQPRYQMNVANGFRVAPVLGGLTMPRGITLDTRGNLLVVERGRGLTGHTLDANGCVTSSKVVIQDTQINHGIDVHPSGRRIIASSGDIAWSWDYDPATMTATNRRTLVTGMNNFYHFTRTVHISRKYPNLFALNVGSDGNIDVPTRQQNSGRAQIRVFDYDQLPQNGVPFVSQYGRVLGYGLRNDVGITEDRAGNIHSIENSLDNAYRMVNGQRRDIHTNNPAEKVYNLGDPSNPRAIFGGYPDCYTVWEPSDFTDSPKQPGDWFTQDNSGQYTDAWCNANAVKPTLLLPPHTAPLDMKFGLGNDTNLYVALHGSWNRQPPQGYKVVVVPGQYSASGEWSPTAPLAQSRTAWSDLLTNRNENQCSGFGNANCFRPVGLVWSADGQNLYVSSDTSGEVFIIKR
Test: UV-vis spectral reduction of PQQ; PMS/DCPIP assay
Assay type: biochemical
Settings: holo-form; 1 mM L-fucose; 50 mM HEPES pH 7.0; 1 mM CaCl2; room temperature (spectra)

## C[C@@H]1OC(O)[C@@H](O)[C@H](O)[C@@H]1O (stereo partly drawn) [L-fucose]
  UV-vis spectral reduction of PQQ; PMS/DCPIP assay: The addition of L-fucose resulted in the reduction of PQQ
